Columns and labels:
[1] = Stability of ^166Ho-DOTMP with and without stabilizer: radiochemical purity by ITLC, CEC, HPLC (Example 15); assay type: physicochemical
Experimental: Samples of ^166Ho-DOTMP were prepared according to the procedure in Example 1 using ascorbic acid, 55 mg/mL, as the stabilizer. Identical samples were prepared without ascorbic acid. The solutions were analyzed for radiochemical purity after 1 hour, 6 hours, 10 hours, 24 hours, and 48 hours, using Instant Thin Layer Chromatography (ILTC), Cation Exchange Chromatography (CEC) and High Performance Liquid Chromatography (HPLC).

[2] = Biodistribution study of ^166Ho-DOTMP in rats (Example 16); assay type: in vivo, Sprague Dawley rats; details: rat, i.v.
Experimental: Sprague Dawley (S. D.) rats were injected intravenously (inj. i.v.) with a solution of ^166Ho-DOTMP (“Ho-DO”) containing ascorbic acid (asc) as a stabilizer. The animals were sacrificed and organs excised and counted in a radioactive well counter after decay to appropriate levels. Bone (femur) samples were counted and converted to a total bone percent injected dose using a factor of 25 times femur percent.
A second group of Sprague Dawley rats were injected intravenously with a solution of ^166Ho-DOTMP without having the stabilizer. The animals were sacrificed and organs excised and counted in a radioactive well counter after decay to appropriate levels. Bone (femur) samples were counted and converted to a total bone percent injected dose using a factor of 25 times femur percent.
FIG. 2 illustrates the data uptake base on the % injection dose. FIG. 3 illustrates the data uptake base on the % injection dose per gram(mass). FIG. 4 illustrates the data uptake base on the tissue/blood ratio. Abbreviations: Blo=blood; Tai=tail; Lun=lung; Liv=liver; Spl=spleen; Sto=stomach; Kid=kidneys; Int=intestines; Bon=bone; SD=standard deviation.

[3] = test system: multiple myeloma; assay: Single patient: 40 Gy ^153Sm-EDTMP, melphalan 200 mg/m^2 (Example 14); assay type: in vivo, human; details: present tense
Experimental: The patient, a person with an original diagnosis of multiple myeloma and diagnosed with primary refractory disease, is given a trace dose of ^153Sm-EDTMP, and the 24 hr whole body uptake is calculated. Based on dosimetry calculations a therapeutic dose is designed to deliver 40 Gy to the marrow. After the level of ^153Sm in the patient fell to ≦3.6 mCi, the patient receives a dose of 200 mg/m^2 of melphalan (I.V.). The patient's stem cells are reinfused two days after the melphalan, with G-CSF and antibiotics, as needed.

[4] = ^153Sm-EDTMP 30-50 Gy with melphalan up to 200 mg/m^2, response and urinary tract side effects; assay type: in vivo; details: 30-50 Gy with melphalan as high as 200 mg/m^2
[5] = test system: rats inoculated with murine myeloma cells; details: used with melphalan, followed by bone marrow transplant; cited from earlier work
[6] = test system: multiple myeloma; details: 140 mg/m^2 of body-surface area intravenously; cited from earlier work
[7] = 40 Gy to marrow, melphalan 200 mg/m^2, one patient

## O=P([O-])(O)CN1CCN(CP(=O)([O-])O)CCN(CP(=O)(O)O)CCN(CP(=O)([O-])O)CC1.[166Ho+3] [Ho-DO only]
[1]; 1 hr
  radiochemical purity, CEC: 99.0
  radiochemical purity, HPLC: 100
  radiochemical purity, ITLC: 99.2
[1]; 6 hrs
  radiochemical purity, CEC: 97.8
  radiochemical purity, HPLC: 95.4
  radiochemical purity, ITLC: 98.1
[1]; 10 hrs
  radiochemical purity, CEC: 97.8
  radiochemical purity, HPLC: 94.9
  radiochemical purity, ITLC: 97.5
[1]; 24 hrs
  radiochemical purity, CEC: 97.2
  radiochemical purity, HPLC: 85.8
  radiochemical purity, ITLC: 97.6
[1]; 48 hrs
  radiochemical purity, CEC: 97.1
  radiochemical purity, ITLC: 96.5
[2]
  Percent Injection Dose, Blood: 0.29 Percent Injection Dose
  Percent Injection Dose, Intestine: 3.81 Percent Injection Dose
  Percent Injection Dose, Kidney: 0.72 Percent Injection Dose
  Percent Injection Dose, Liver: 2.40 Percent Injection Dose
  Percent Injection Dose, Lung: 0.00 Percent Injection Dose
  Percent Injection Dose, Spleen: 0.56 Percent Injection Dose
  Percent Injection Dose, Stomach: 0.20 Percent Injection Dose
  Percent Injection Dose, Tail: 3.21 Percent Injection Dose
  Percent Injection Dose/Gram, Blood: 0.02 Percent Injection Dose/Gram
  Percent Injection Dose/Gram, Intestine: 0.23 Percent Injection Dose/Gram
  Percent Injection Dose/Gram, Kidney: 0.38 Percent Injection Dose/Gram
  Percent Injection Dose/Gram, Liver: 0.31 Percent Injection Dose/Gram
  Percent Injection Dose/Gram, Lung: 0.04 Percent Injection Dose/Gram
  Percent Injection Dose/Gram, Spleen: 1.03 Percent Injection Dose/Gram
  Percent Injection Dose/Gram, Stomach: 0.05 Percent Injection Dose/Gram
  Percent Injection Dose/Gram, Tail: 0.51 Percent Injection Dose/Gram
  Tissue/Blood Ratio, Blood: 1.00
  Tissue/Blood Ratio, Bone: 296.80
  Tissue/Blood Ratio, Intestine: 13.80
  Tissue/Blood Ratio, Kidney: 22.84
  Tissue/Blood Ratio, Liver: 18.90
  Tissue/Blood Ratio, Lung: 2.34
  Tissue/Blood Ratio, Spleen: 62.09
  Tissue/Blood Ratio, Stomach: 3.24
  Tissue/Blood Ratio, Tail: 31.33
[2]; femur
  Percent Injection Dose/Gram, Bone: 4.84 Percent Injection Dose/Gram
[2]; total bone = 25 times femur percent
  Percent Injection Dose, Bone: 50.05 Percent Injection Dose

## O=P([O-])(O)CN(CCN(CP(=O)([O-])O)CP(=O)(O)O)CP(=O)([O-])O.[153Sm+3] [^153Sm-EDTMP]
[3]; [7]
  days post stem cell transplant to neutrophil engraftment (ANC >500): Fourteen
  days post transplant to platelet engraftment (>20,000): twenty
[3]; five months post treatment, one patient
  response: complete remission
[4]
  total response rates: > 90%
  urinary tract side effects: without significant urinary tract side effects
[5]
  survival: improves survival

## N[C@@H](Cc1ccc(N(CCCl)CCCl)cc1)C(=O)O [melphalan, L-phenylalanine, 4-[bis(2-chloroethyl)amino]-]
[6]
  patients with partial or complete remissions: about 40%

From US7691985B2, “Skeletal-targeted radiation to treat bone-associated pathologies” (priority 1999, dated 2010)
